Active and inactive are the calls of the source.
Legend:
[1] = biological target: T1, Calpain-2 catalytic subunit (Sus scrofa, UniProt P43367); assay: pig calpain II inhibitor potency, dose response, biochemical, fluorogenic peptide substrate (AID 1420); assay type: functional
T1 sequence (P43367 whole entry): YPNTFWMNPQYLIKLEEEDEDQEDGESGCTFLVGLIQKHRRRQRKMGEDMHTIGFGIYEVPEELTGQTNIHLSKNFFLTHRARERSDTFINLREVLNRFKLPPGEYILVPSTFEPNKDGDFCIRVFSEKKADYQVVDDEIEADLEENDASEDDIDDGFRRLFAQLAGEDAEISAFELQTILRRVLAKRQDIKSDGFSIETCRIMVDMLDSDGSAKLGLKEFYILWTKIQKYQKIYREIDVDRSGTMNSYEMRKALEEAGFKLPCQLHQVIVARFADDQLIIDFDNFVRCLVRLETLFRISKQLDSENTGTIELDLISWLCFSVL

[2] = biological target: Cytochrome P450 2C9 (Homo sapiens, UniProt P11712)
Sequence of Cytochrome P450 2C9 (P11712 whole entry): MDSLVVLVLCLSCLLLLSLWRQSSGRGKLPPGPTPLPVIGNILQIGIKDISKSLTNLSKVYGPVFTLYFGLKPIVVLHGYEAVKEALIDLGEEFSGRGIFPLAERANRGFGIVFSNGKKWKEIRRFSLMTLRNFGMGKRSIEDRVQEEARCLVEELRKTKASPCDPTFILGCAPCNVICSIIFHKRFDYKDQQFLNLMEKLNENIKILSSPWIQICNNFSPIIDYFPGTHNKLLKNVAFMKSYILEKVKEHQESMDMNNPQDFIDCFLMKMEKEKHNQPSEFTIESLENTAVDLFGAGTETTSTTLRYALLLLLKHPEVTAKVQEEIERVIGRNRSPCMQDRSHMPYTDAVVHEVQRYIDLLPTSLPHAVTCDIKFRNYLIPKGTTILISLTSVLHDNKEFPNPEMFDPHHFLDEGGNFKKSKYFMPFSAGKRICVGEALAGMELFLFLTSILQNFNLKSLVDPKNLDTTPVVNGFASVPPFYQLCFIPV

[3] = NIH-3T3 fibroblast cytotoxicity, dose response, cytotoxicity control, cell-based, fluorescence, Alamar Blue, secondary assay (AID 2327); assay type: functional;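 note: NIH-3T3 mouse fibroblasts cultured with fluconazole at 8 µg/mL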
[4] = C. albicans growth with fluconazole, confirmation, fluorescence, retest (AID 2467); assay type: functional, cell-based
[5] = biological target: Cytochrome P450 2D6 (Homo sapiens, UniProt P10635);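 note: CYP2D6 member of a cytochrome P450 panel assay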
Sequence of Cytochrome P450 2D6 (P10635 whole entry): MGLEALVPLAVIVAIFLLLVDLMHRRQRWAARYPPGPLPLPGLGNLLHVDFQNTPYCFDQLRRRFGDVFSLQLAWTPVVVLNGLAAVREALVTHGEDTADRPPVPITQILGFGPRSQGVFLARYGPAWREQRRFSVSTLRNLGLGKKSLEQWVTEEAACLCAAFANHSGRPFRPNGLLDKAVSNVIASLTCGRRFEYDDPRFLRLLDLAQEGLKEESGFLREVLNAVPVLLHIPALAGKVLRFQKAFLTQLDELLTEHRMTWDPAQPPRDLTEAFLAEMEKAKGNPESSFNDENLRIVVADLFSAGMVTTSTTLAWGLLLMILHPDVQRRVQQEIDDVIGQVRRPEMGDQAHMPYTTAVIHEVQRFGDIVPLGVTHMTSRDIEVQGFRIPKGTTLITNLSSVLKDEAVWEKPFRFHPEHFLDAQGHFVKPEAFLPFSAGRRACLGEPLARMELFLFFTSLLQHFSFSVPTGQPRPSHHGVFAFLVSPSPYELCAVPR

[6] = biological target: T2, Polyadenylate-binding protein 1 (Homo sapiens, UniProt P11940); assay: PABP1 MLLE–PAM2 binding inhibitor potency, dose response, biochemical, fluorescence polarization, FITC-PAM2 peptide (AID 602259); assay type: functional; settings: read-out: IC50_Mean
T2 sequence (P11940 whole entry): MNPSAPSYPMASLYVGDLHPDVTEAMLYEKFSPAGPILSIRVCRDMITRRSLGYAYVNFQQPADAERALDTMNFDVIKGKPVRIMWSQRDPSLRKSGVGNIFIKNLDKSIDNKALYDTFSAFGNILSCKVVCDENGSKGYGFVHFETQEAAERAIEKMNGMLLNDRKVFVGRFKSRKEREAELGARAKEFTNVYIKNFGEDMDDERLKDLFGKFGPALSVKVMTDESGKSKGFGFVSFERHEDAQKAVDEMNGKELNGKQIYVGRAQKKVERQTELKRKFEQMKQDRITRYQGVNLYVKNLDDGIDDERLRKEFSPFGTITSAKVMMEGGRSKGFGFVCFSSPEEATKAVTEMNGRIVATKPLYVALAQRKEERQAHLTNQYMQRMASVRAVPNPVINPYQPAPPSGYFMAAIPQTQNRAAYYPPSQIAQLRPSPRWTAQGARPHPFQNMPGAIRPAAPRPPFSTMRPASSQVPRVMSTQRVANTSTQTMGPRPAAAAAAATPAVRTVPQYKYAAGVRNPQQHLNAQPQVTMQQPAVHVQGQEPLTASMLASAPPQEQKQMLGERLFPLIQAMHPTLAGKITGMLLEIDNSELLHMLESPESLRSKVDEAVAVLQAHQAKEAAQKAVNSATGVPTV

[7] = biological target: T2, Polyadenylate-binding protein 1; assay: PABP1 MLLE–PAM2 interaction inhibitors, dose response, miRNA deadenylation inhibitor project, biochemical, fluorescence polarization, Cy5-PAM2 peptide, secondary (AID 602260); assay type: functional; settings: read-out: IC50_Mean
[8] = biological target: Cytochrome P450 2C19 (Homo sapiens, UniProt P33261); assay: Cytochrome panel assay with activity outcomes. Panel member name: p450-cyp2c19 Compounds with AC50 equal or less than 10 uM are considered active; assay type: functional
Sequence of Cytochrome P450 2C19 (P33261 whole entry): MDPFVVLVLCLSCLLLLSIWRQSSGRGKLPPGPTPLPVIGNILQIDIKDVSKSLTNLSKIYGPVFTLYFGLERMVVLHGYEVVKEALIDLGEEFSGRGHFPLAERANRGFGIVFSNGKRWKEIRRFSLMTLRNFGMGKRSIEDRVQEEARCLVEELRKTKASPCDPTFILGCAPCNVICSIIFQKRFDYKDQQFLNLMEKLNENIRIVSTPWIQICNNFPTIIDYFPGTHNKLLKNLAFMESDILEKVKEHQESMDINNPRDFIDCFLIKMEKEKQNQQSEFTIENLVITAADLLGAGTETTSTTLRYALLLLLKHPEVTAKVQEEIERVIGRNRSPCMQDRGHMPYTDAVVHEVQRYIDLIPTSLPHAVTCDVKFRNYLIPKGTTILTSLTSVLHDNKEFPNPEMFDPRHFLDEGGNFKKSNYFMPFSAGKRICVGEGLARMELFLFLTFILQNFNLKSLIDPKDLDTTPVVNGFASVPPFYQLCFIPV

[9] = biological target: T3, Cytochrome P450 1A2 (Homo sapiens, UniProt P05177);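 note: PubChem cytochrome P450 panel assay, CYP1A2 panel member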
T3 sequence (P05177 whole entry): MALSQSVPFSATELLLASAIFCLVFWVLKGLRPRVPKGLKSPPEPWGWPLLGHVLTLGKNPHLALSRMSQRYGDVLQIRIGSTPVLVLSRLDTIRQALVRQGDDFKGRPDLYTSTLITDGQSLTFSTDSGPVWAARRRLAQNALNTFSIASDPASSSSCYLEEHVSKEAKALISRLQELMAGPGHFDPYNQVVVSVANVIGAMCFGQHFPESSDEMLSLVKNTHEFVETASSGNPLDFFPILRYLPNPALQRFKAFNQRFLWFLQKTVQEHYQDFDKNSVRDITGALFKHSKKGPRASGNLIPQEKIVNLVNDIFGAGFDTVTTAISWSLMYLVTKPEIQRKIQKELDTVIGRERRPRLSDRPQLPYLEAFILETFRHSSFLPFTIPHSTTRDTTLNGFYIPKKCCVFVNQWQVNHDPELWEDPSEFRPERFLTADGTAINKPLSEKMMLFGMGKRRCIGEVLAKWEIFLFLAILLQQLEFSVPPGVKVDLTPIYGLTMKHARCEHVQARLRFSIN

[10] = biological target: T4, Replicative DNA helicase DnaB (Mycobacterium tuberculosis, UniProt P9WMR3); assay: DnaB intein splicing inhibitors, dose response, biochemical, cell-free fluorescence (AID 449749); assay type: functional
T4 sequence (P9WMR3 whole entry): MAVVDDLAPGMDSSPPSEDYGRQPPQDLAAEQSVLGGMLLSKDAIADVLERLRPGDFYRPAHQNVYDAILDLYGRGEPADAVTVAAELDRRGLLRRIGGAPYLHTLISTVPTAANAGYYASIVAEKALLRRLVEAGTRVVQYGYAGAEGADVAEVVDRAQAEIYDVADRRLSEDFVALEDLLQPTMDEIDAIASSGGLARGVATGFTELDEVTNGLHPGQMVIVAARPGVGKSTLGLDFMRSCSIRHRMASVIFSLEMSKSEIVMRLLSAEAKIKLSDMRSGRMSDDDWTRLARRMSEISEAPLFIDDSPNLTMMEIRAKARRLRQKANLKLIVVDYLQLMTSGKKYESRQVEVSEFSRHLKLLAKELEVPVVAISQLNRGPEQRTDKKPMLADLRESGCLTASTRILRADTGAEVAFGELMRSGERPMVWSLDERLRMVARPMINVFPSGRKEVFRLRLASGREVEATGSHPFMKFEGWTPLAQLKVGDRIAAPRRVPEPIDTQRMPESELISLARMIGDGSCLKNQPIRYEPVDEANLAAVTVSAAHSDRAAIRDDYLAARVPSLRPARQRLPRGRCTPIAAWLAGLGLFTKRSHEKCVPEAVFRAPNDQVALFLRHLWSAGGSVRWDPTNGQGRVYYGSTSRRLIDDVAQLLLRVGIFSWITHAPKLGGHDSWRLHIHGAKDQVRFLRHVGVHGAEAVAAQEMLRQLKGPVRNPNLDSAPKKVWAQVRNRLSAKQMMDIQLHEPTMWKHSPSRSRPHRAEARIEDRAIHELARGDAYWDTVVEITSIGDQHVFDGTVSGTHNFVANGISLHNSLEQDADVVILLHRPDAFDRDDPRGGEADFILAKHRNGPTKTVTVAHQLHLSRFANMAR

[11] = biological target: T5, Protein RecA (Mycobacterium tuberculosis, UniProt P9WHJ3); assay: Fluorescence Cell-Free Homogeneous Dose Retest to Identify Inhibitors of RecA-Intein Splicing Activity. [Related pubchem assays (depositor defined):AID2097, AID2223, AID489010, AID492950]; assay type: functional
T5 sequence (P9WHJ3 whole entry): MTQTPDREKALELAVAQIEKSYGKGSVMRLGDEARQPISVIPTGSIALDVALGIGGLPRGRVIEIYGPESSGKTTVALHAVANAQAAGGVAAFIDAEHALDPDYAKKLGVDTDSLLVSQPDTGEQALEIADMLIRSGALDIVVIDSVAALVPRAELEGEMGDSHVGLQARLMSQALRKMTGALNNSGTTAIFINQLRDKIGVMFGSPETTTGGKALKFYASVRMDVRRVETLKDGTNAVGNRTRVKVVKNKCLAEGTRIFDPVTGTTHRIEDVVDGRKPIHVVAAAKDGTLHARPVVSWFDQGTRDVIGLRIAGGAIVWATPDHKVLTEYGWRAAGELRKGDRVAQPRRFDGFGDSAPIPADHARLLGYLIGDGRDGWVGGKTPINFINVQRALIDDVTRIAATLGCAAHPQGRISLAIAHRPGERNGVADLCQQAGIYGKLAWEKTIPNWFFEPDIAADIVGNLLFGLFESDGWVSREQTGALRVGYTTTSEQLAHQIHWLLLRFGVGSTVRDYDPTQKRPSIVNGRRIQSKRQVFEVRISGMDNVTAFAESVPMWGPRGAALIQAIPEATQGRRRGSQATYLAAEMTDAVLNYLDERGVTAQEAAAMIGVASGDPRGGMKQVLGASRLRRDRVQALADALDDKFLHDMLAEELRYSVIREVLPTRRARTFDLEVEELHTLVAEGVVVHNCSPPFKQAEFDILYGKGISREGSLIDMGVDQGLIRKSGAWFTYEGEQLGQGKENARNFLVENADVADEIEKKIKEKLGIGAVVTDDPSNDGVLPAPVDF

[12] = cells; assay type: functional, cell-based
[13] = cells; assay type: functional, cell-based; remark: listed apart in the source
[14] = biological target: Cytochrome P450 3A4 (Homo sapiens, UniProt P08684);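 note: CYP3A4 tested as one member of a cytochrome P450 panel screen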
Sequence of Cytochrome P450 3A4 (P08684 whole entry): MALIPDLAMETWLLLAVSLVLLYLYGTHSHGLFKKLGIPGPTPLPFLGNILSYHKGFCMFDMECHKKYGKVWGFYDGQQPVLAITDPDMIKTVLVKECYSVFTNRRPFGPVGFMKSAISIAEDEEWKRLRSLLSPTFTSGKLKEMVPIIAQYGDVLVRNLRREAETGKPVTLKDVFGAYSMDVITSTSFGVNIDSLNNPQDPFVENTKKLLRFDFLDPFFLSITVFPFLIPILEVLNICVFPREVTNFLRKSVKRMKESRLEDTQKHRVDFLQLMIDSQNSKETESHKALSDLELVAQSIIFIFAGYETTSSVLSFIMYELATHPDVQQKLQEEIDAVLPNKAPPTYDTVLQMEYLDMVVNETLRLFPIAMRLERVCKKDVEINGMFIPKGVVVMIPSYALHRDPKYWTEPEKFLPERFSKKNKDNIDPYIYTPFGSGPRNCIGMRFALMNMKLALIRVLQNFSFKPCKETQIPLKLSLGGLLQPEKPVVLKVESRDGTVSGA

[15] = P. falciparum Dd2 growth inhibitors, dose response, SYBR Green, cherry-picked samples (AID 1159567); assay type: functional, cell-based

## N=C(NNC(=O)c1ccccc1)c1cc2ccccc2oc1=O
[1]
  IC50: 48.5 µM (not active)

## CC(C)Cn1c(N)c(C(=O)COC(=O)c2cccc(F)c2)c(=O)n(C)c1=O
[1]
  IC50: 16.2 µM (not active)

## CCOc1cc(C)ccc1OCc1nnc(SCC(=O)c2cccc([N+](=O)[O-])c2)n1CC
[2]
  AC50: inconclusive

## Cc1c(C(=O)N2CCC(C)CC2)sc2ncnc(N3CCN(c4ccccc4)CC3)c12
[1]
  IC50: 19 µM (not active)

## O=C(Cc1ccccc1Cl)NCCCn1ccnc1
[1]
  IC50: > 50 µM (not active)

## COc1ccc(Cl)cc1NC(=O)NCCCl
[2]
  AC50: inconclusive

## O=C(Oc1ccc(-c2ccccc2)cc1)N1CCCCC1
[1]
  IC50: 1.11 µM (not active)

## CCOc1ccc(CCNC(=O)CN2CCN(Cc3ccc(F)cc3)C2=O)cc1OCC
[1]
  IC50: > 50 µM (not active)

## Cc1ccc(SCC(=O)c2sc(-c3ccccc3)nc2C)cc1
[1]
  IC50: 6.06 µM (not active)

## COC(=O)c1[nH]c2cc(C)ccc2c1NC(=O)CN1CCc2cc(OC)c(OC)cc2C1
[3]
  EC50: > 150 µM (inactive)
[4]
  EC50: > 38 µM (not active)

## COc1ccc2c(Cc3c4ccccc4cc4ccccc34)cncc2c1O
[5]
  AC50: 3.16 µM (inconclusive)
[2]
  AC50: inconclusive

## Cc1ccc(N2C(=O)C3C4C=CC(CN=C(S)Nc5cccc(Cl)c5)(O4)C3C2=O)cc1 (stereo not given)
[6]
  IC50: > 66 µM (inactive)
[7]
  IC50: > 66 µM (inactive)

## CCOc1ccc(NC(=O)NNC(=O)c2cc3ccccc3cc2O)cc1
[3]
  EC50: > 150 µM (inactive)

## O=C(Nc1ccccn1)c1ccco1
[8]
  AC50: inconclusive
[2]
  AC50: inconclusive

## CCCCOc1cccc(C(=O)NN=C(S)NC2CCCCC2)c1
[3]
  EC50: 37.1 µM (active)

## CC1Cc2ccccc2N1C(=O)CCN1C(=O)C2C3C=CC(C3)C2C1=O (stereo not given)
[9]
  AC50: 10 µM (inconclusive)
[8]; read-out: AC50
  AC50: 10 µM (inconclusive)
[2]
  AC50: inconclusive

## Cn1nc(C(C)(C)C)cc1C(=O)Sc1cccc(Br)c1
[10]
  AC50: 16.4 µM (active)
[6]
  IC50: > 66 µM (inactive)
[11]
  EC50: 37.1 µM (inconclusive)
[7]
  IC50: > 66 µM (inactive)

## O=C1c2ccccc2C(=O)N1CC1=CCS(=O)(=O)C1
[6]
  IC50: > 66 µM (inactive)
[7]
  IC50: > 66 µM (inactive)

## COc1ccc(CNc2ccc3c[nH]nc3c2)c(OC)c1OC
[10]
  AC50: 2.69 µM (active)
[11]
  EC50: 0.797 µM (active)

## Cc1ccc(C(=O)NC(=S)Nc2ccc(N3CCN(C(=O)c4ccco4)CC3)cc2)cc1
[6]
  IC50: > 66 µM (inactive)
[7]
  IC50: > 66 µM (inactive)

## Cc1cc(SCC(=O)c2cccs2)nc2c(C)cccc12
[2]
  AC50: inconclusive

## COc1ccc(N2CCN(C(c3ccccc3)c3nnnn3Cc3ccc(F)cc3)CC2)cc1 (stereo not given)
[1]
  IC50: 5 µM (not active)

## CSc1nn2c(C(F)(F)F)cc(C(F)(F)F)nc2c1C(=O)O
[3]
  EC50: > 160 µM (inactive)

## C=COC(=O)CSc1snc(SCC(=O)OC)c1C#N
[10]
  AC50: > 380 µM (inactive)
[11]
  EC50: 40.1 µM (active)

## NN=C(S)Nc1cccc(Cl)c1
[3]
  EC50: > 150 µM (inconclusive)
[4]
  EC50: > 38 µM (not active)

## CCCCNS(=O)(=O)c1ccc(OC)c(Cl)c1Cl
[9]
  AC50: 4.47 µM (inconclusive)
[2]
  AC50: inconclusive

## O=C1CC/[N+](=C\c2ccc(Cl)c(Cl)c2)[N-]1
[10]
  AC50: 17.8 µM (active)
[11]
  EC50: 8.98 µM (active)

## CC1CCCN(C2=C(Cl)C(=O)N(c3cccc(Cl)c3)C2=O)C1 (stereo not given)
[10]
  AC50: > 380 µM (inactive)
[11]
  EC50: 2.86 µM (active)

## CN(Cc1ccccc1)C(=O)CC(=O)N(C)Cc1ccccc1
[12]
  EC50: > 350 µM (not active)
[13]
  EC50: > 350 µM (not active)

## COc1ccc(S(=O)(=O)N(C(=O)C(C)C)c2ccc3oc(=O)sc3c2)cc1
[6]
  IC50: > 66 µM (inactive)
[7]
  IC50: > 66 µM (inactive)

## CC(C)CNCC(=O)N1c2ccccc2Sc2ccccc21.O=C(O)C(=O)O
[5]
  AC50: 28.2 µM (inconclusive)
[9]
  AC50: 15.8 µM (inconclusive)
[2]
  AC50: inconclusive

## CCc1ccc(CNC(=O)CCC(=O)N2Cc3cccc(OC)c3Oc3ncccc32)cc1
[3]
  EC50: > 160 µM (inactive)
[4]
  EC50: > 38 µM (not active)

## Cc1cccc(NC(S)=NCc2cccs2)c1
[1]
  IC50: > 50 µM (not active)

## Cc1cc(C)c(S(=O)(=O)NNC(=O)C2CCN(Cc3ccccc3)CC2)c(C)c1
[14]
  AC50: 22.4 µM (inconclusive)
[2]
  AC50: inconclusive

## Oc1ccc(Br)cc1/C=N/c1cccn2cc(-c3ccccc3)nc12
[6]
  IC50: > 66 µM (inactive)
[7]
  IC50: > 66 µM (inactive)

## CCC/C(=N/NC(=O)c1cccc(Cl)c1)c1ccccc1
[12]
  EC50: > 350 µM (not active)
[13]
  EC50: > 350 µM (not active)

## CC(=O)N1CC[C@@H]2[C@@H](CO)Nc3ccc(C#Cc4ccccc4F)cc3[C@@H]21
[15]
  AC50: 10.7 µM (active)

## C/C=C/c1ccccc1[C@@H]1[C@@H](CO)N(S(=O)(=O)c2cccc(F)c2)[C@H]1C#N
[15]
  AC50: 6.96 µM (active)

## COc1ccc2c3c([nH]c2c1)[C@@H](CO)N(Cc1ccccc1)CC31CCN(C(=O)c2cccnc2)CC1
[15]
  AC50: 4.55 µM (active)

## COc1ccc2c3c([nH]c2c1)[C@H](CO)N(Cc1ccccc1F)CC31CN(C(=O)C2CCC2)C1
[15]
  AC50: 7.75 µM (active)

— ChEMBL document CHEMBL1201862, “PubChem BioAssay data set” (2004)
